From paper PMC4948833, “A Sensitive and Robust High-Throughput Screening Assay for Inhibitors of the Chikungunya Virus nsP1 Capping Enzyme” (PLoS ONE, 2016)

Legend:
CHIKV nsP1 [1] = experiment: FP Kd determination of GTP-Bodipy and ATP-Bodipy with purified CHIKV nsP1; details: fluorescence polarization, nsP1 titrated 3 μM to 1 nM, 1 hour 25°C
[2] = test system: CHIKV nsP1 guanylation activity; experiment: Guanylation assay, covalent nsP1-GTP-680 formation, SDS-PAGE fluorescence; details: for Percent of Control: single replicates, scaled guanylation
[3] = test system: CHIKV nsP1 GTP binding site; experiment: FP competition assay, displacement of GTP-Bodipy by GTP and RNA cap analogs (apparent Ki / EC50)
CHIKV nsP1 [4] = experiment: HTS validation potency repeatability, EC50 of GTP analogs in two independent FP runs

In the case of “Bodipy-γ-phosphate-labeled GTP analog [GTP-Bodipy]”, the Kd (CHIKV nsP1 [1]; 10 nM GTP-Bodipy) is reported as 100 nM.

In the case of “Bodipy-γ-phosphate-labeled ATP analog [ATP-Bodipy]”, the Kd (CHIKV nsP1 [1]; 5 nM ATP-Bodipy) is reported as 2100 nM.

In the case of Nc1nc2c(ncn2[C@H]2C[C@H](O)[C@@H](COP(=O)(O)OP(=O)(O)OP(=O)(O)O)O2)c(=O)[nH]1 [dGTP], the “ability to inhibit nsP1 guanylation (in words)” value ([2]; 100 μM of each GTP analog, 1 hour, Fig 4) is reported as “greatest ability to in inhibit nsP1 guanylation activity”, the “Average POC” value ([2]; mean of replicates, 100 μM analog, Fig 4 data) is reported as 25.7895 and the “Percent of Control” value ([2]; 100 μM analog, Fig 4 data, 100 µM) is reported as 29.9486. For the same compound, the “Percent of Control” value ([2]; 100 μM analog, Fig 4 data, listed as dGTP2, 100 µM) was 23.146, the “Percent of Control” value ([2]; 100 μM analog, Fig 4 data, listed as dGTP3, 100 µM) was 24.2738 and the “affinity for nsP1 GTP binding site / ability to compete with GTP-Bodipy (in words)” value ([3]; FP competition, compared with GTP) was “less affinity compared to the others”. For the same compound, the Ki ([3]; read-out: Average Ki, apparent Ki, 500 nM nsP1, 10 nM GTP-Bodipy, 1 hour 25°C) was 4210 nM, the “Geometric Mean Potency” value (CHIKV nsP1 [4]; first set of rows) was 5.4125 and the “Geometric Mean Potency” value (CHIKV nsP1 [4]; second set of rows) was 5.208.
